We go through five molecules from patent US20240293588A1, “THERAPEUTIC CONJUGATES” (Starpharma Pty Ltd, priority 2020, published 2024).

One series relates to OE-19 cells. Description: GI50 panel (MTT assay), OE19. It is filed as cell-based.
A further series deals with SK-Br-3 cells. Description: GI50 panel (MTT assay), SK-BR-3. The class given is cell-based.
For series [1], the system named is MDA-MB-231 cells. Description: GI50 panel (MTT assay), MDA-MB-231. The class given is cell-based.
Another series concerns NCI-N87 cells. Description: GI50 panel (MTT assay), NCI-N87. The class given is cell-based. (Tetrazolium dyes change colour on reduction, which living cells bring about.)
Series [2] deals with SKOV-3 cells. Description: GI50 panel (MTT assay), SKOV-3. The class given is cell-based.
The subject of the next series is BT474 tumours. Description: Radiotherapeutic efficacy (177Lu) in BT474 xenograft model. It is filed as in vivo, Balb/c nude mice. The conditions noted are these: 177Lu-labelled test articles, IV. The method, then:
Healthy in female Balb/c nude mice (aged 9 weeks) were obtained from the Animal Resource Centre, Western Australia. A total of four mice per dosing group were initially implanted with estrogen pellets (17Beta-estradiol 0.72 mg/pellet 60 Day Release; Innovative Research of America) and then on day 2 were innoculated subcutaneously in the breast mammary fat pad with 10×10^6 BT474 cells in PBS:Matrigel (1:1). Mice were weighed, and tumours measured 2-3 times weekly using electronic callipers. Tumour volume (mm^3) were calculated as ((length (mm)×((width (mm))^2)/2. Mice were randomised into eight dosing groups outlined in the Table below as tumours reached mean volumes of approximately 100 mm^3 (approximately 5 weeks from implantation of cells).
Samples of each solution were taken and mixed 1:1 with 50 mM DTPA. 5 μL of each DTPA incubated sample or neat solution was spotted on TLC paper (Agilent iTLC-SG Glass microfiber chromatography paper impregnated with silica gel) and run with 50:50 H2O:ethanol. Detection of radiolabelled species migration was then achieved using an Eckert and Ziegler Mini-Scan and Flow-Count system. […] Control experiments were conducted to monitor the elution behaviour of free ^177Lu and ^177Lu bound to DTPA for quality control. […]

Series [3] relates to MDA-MB-231 cells. Description: Confocal cellular uptake, MDA-MB-231. It is filed as cell-based. The conditions noted are these: MDA-MB-231, 3.33 nM, 24 h. The procedure:
MDA-MB-231, MDA-MB-231/HER2 and SKOV-3 cells were plated at 1.0×10^4 cells per well into μ-slide 8-well chambered coverslip (ibidi) and allowed to adhere overnight at 37° C., 5% CO2. Compound 71 and Compound 123 (3.33 nM) were then added and allowed to incubate for 1, 3, 6, and 24 h. The cells were washed and then fixed with 1% paraformaldehyde for 20 min at room temperature. The cell membrane was stained with Alexa Fluor 488-wheat germ agglutinin (AF488-WGA, 5 μg mL^−1) in DPBS at room temperature for 10 min. The cell nuclei were counterstained with 4′,6-diamidino-2-phenylindole (DAPI, 2 μg mL^−1) in DPBS at room temperature for 10 min. Fluorescence images and optical sections were collected using a confocal microscope (Leica SP8). Images were processed with Fiji (Image J 1.52n).

The subject of series [4] is MDA-MB-231/HER2 (HER2 knock in) cells. Description: In vitro association study (flow cytometry), MDA-MB-231/HER2. It is filed as cell-based, human.
The subject of series [5] is MDA-MB-231 cells (HER2 lo). Description: In vitro association study (flow cytometry), MDA-MB-231. It is filed as cell-based, human. The following applies: MDA-MB-231, over 24 h, result in words. A general note: Flow cytometry measures light scatter and fluorescence of single cells or particles in a stream.
The subject of series [6] is MDA-MB-231/HER2 transfected cells. Description: Cytotoxicity alamarBlue assay, MDA-MB-231/HER2 (HER2 hi). The class given is cell-based. The following applies: 48 h; for Cell viability %: mean ± sd, n=4. The method, then: MDA-MB-231 breast cancer cells were transfected with plasmid HER2 WT Addgene, 16257) using Lipofectamine 3000 according to manufacturer's instructions. After passaging in the presence of 500 μg/ml Geneticin (Thermo Fisher, catalogue 10131035), cells with stable overexpression of HER2 WT were isolated by fluorescence activated single cell sorting using a MoFlo Astrios (Beckman Coulter). A clonal cell population isolated from this process was further passaged in Geneticin before a second round of cell sorting and screening for transgene expression. A selected clone was then further expanded and stocks of this cell line, referred to as MDA-MB-231/HER2, were cryopreserved to generate a master stock of stably transduced cells.
(§1) The cytotoxicity of Compound 71 (control) and Compound 123 (targeted) toward MDA-MB-231, and MDA-MB-231/HER2 transfected cells were evaluated via alamarBlue assays. Cells were seeded at a density of 5×10^3, in 96-well plates and incubated overnight. Cells were then treated with indicated concentrations of test compositions for 48 h. AlamarBlue (Thermo Fisher, DAL1025) was added during the final 4 h of incubation. Reduction of alamarBlue in living cells yields a red fluorescent metabolite that can be read on a plate reader (560 nm excitation/610 nm emission). Cell viability and subsequent IC50 was determined from the blank corrected dose-response curves, with 4-parameter nonlinear nonlinear curve fit, variable slope (four parameters) in GraphPad Prism 7.02. […] Compound 123 (targeted) is approximately 140-fold increase in MDA-MB-231/HER2 cell growth inhibition compared to Compound 71 (control).

Series [7] deals with SKOV-3 cells. Description: In vitro association study (flow cytometry), SKOV-3. It is filed as cell-based, human. The procedure:
The HER2-expressing human metastatic carcinoma cell line MDA-MB-453 (ATCC HTB-131) and the HER2-lo epithelial adenocarcinoma cell line MDA-MB-231 (ATCC HTB-26) were maintained in Dulbecco's Modified Eagle's Medium (DMEM) containing 10% FBS and penicillin-streptomycin (100 U/mL) at 37° C. under a 5% CO2 humidified atmosphere and subcultured prior to confluence using trypsin. Human adenocarcinoma ovary cell line SKOV-3 (ATCC® HTB-77) cells were maintained in RPMI media with the addition of 10% (v/v) FBS and penicillin-streptomycin (100 U/mL) at 37° C. in a 5% CO2 humidified atmosphere and subcultured prior to confluence.
MDA-MB-231, MDA-MB-231/HER2 (HER2 knock in) (as described in Ex 6 above), or SKOV-3 cells were seeded in a 24-well plate (1×10^5 cells per well) in 500 μL of appropriate growth media with the addition of 10% (v/v) fetal bovine serum (FBS) and incubated with Compound 36 or Compound 41 at 3.33 nM, with incubation time varied from 1 to 24 h at 37° C. in a 5% CO2 humidified atmosphere. […] Cellular binding and association of sample were then determined through flow cytometry by the acquisition of the signal from Cy5.
To measure internalisation kinetics, nanobody-dendrimer was incubated with cells for 24, 4, 1, 0.5, and 0.1 hours at 37° C. before unbound nanobody-dendrimer was removed by washing and analysed by flow cytometry.

The test system of series [8] is MDA-MB-231 cells. Description: Cytotoxicity alamarBlue assay, MDA-MB-231 (HER2 lo). The class given is cell-based. The following applies: 48 h; for Cell viability %: mean ± sd, n=4. The procedure: as §1
For orientation: Alamar Blue is a resazurin reagent that responds to reducing activity.

Another series deals with MDA-MB-231/HER2 tumours. Description: Tumour distribution of tritium-labelled MMAE-conjugated dendrimers. It is filed as in vivo, NOD/SCID mice. The conditions noted are these: 3H label, 0.5 μCi via tail vein, 48 h, mean±SEM. The method, then:
MDA-MB-231/HER2 cells (5×10^6 cells in 50 μL of PBS:Matrigel) were transplanted into the 4th mammary fat pad of female NOD/SCID mice (5-7 weeks old) subcutaneously. Solid tumours were allowed to grow to 100 mm^3 (approximately 3-4 weeks). The mice were divided into two different groups, consisting of six mice in each group. Compound 72 (control group) or Compound 127 (targeted group) (0.5 μCi in 100 μL, PBS pH 7) was then injected via tail vein under isoflurane sedation. The mice were anaesthetised with isoflurane 48 h later, and blood collected via cardiac puncture immediately prior to cervical dislocation. Selected organs (including tumour, liver, spleen, kidney, pancreas, lung, heart and brain) were subsequently removed, weighed and processed for tritium (^3H) biodistribution.

Series [9] deals with T1, HER2 (human epidermal growth factor receptor 2) on cells (human, UniProt P04626 23-1255).
T1 construct: whole, on cells; also called ERBB2; HER2 receptor
Description: flow cytometry (Cy5), MDA-MB-231/HER2 cells, 24 h.

The target in series [10] is T1, HER2 (human epidermal growth factor …). Description: flow cytometry (Cy5), SKOV-3 cells, 24 h.

The term GI50 denotes the concentration giving 50% growth inhibition. In the case of `CS(=O)(=O)CCNCc1ccc(-c2ccc3ncnc(Nc4ccc(OCc5cccc(F)c5)c(Cl)c4)c3c2)o1` [Lapatinib, reference compound], the GI50 in the series on OE-19 cells (Homo sapiens, OE19, 72 h) was 0.2 µM; in the series with SK-Br-3 cells (Homo sapiens, SK-BR-3, 72 h) it was 138 nM; with MDA-MB-231 cells [1] (Homo sapiens, MDA-MB-231, 72 h) it was 112 µM; with NCI-N87 cells (Homo sapiens, NCI-N87, 72 h), 8.1 nM; in the series on SKOV-3 cells [2] (Homo sapiens, SK-OV-3, 72 h), 7.2 µM.
On to “BHALys[Lys]2[Lys]4[Lys]8[Lys]16[Lys]32[(α-NHAc)30(α-NHDOTA)2(ε-NHCOPEG2000)32] [Compound RH-3-160]”, for which, in the series on BT474 tumours, the “suppression of tumour growth” value is “effective in suppressing tumour growth”.
As usually defined, the IC50 is the midpoint of a concentration-inhibition curve. A lower IC50 goes with inhibition by little substance. As to “(MeTzPh)PEG4CO-NHPEG24CO—[N(PN)2][Lys]2[Lys]4[Lys]8[((α-NHCy5)1(α-NHGlu-VC-PAB-MMAE)7)(ε-NH-COPEG1100)8], G3 [Compound 71]”, in the series on MDA-MB-231 cells [3], the “association with cells (confocal microscopy)” value is reported as “little”. Moreover, the “mean fluorescence intensity (Cy5)” value is given as 16.05±1.89 in series [4] (MDA-MB-231/HER2, 3.33 nM, 24 h, 37° C., mean±SD, n=3) and 16.4±6.86 in the series on SKOV-3 cells [7] (SKOV-3, 3.33 nM, 24 h, 37° C., mean±SD, n=3). The “binding towards cell line (flow cytometry)” value in series [4] (MDA-MB-231/HER2, over 24 h, result in words) is “minimal binding”; in series [5], “minimal binding”; in the series with SKOV-3 cells [7] (SKOV-3, over 24 h, result in words), “minimal binding”. In addition, the concentration for 50% growth inhibition (GI50) in the series on OE-19 cells (OE19, MTT, 72 h, Kadcyla based on estimated weight ADC, footnote: based on MMAE drug equivalents) was 6.12 µM; in the series with SK-Br-3 cells (SK-BR-3, MTT, 72 h, Kadcyla based on estimated weight ADC, footnote: based on MMAE drug equivalents), 948 nM; in the series with MDA-MB-231 cells [1] (MDA-MB-231, MTT, 72 h, Kadcyla based on estimated weight ADC, footnote: based on MMAE drug equivalents) it was 12.5 µM; with NCI-N87 cells (NCI-N87, MTT, 72 h, Kadcyla based on estimated weight ADC, footnote: based on MMAE drug equivalents) it was 2040 nM; in the series with SKOV-3 cells [2] (SKOV-3, MTT, 72 h, Kadcyla based on estimated weight ADC, footnote: based on MMAE drug equivalents), 1.6 µM. Further, the Cell viability % in series [6] (MDA-MB-231/HER2, MMAE concentration 1 × 10^−5 M) is listed as 61.6 ± 3.1%; in series [6] (MDA-MB-231/HER2, MMAE concentration 1 × 10^−6 M), 78.2 ± 9.1%; in [6] (MDA-MB-231/HER2, MMAE concentration 1 × 10^−7 M), 96.1 ± 3.6%; in [6] (MDA-MB-231/HER2, MMAE concentration 1 × 10^−8 M), 95.4 ± 7.6%; in series [6] (MDA-MB-231/HER2, MMAE concentration 5 × 10^−5 M), 49.9 ± 15.0%; with MDA-MB-231 cells [8] (MDA-MB-231, MMAE concentration 1 × 10^−5 M), 94.2 ± 12.1%. The Cell viability % turned out to be 94.4 ± 8.2% with MDA-MB-231 cells [8] (MDA-MB-231, MMAE concentration 1 × 10^−6 M); 94.2 ± 12.5% with MDA-MB-231 cells [8] (MDA-MB-231, MMAE concentration 1 × 10^−7 M); 96.6 ± 11.7% with MDA-MB-231 cells [8] (MDA-MB-231, MMAE concentration 1 × 10^−8 M); 81.1 ± 5.4% in the series on MDA-MB-231 cells [8] (MDA-MB-231, MMAE concentration 5 × 10^−5 M). Besides, the IC50 in [6] (MDA-MB-231/HER2, alamarBlue, MMAE concentration) was 2840 nM; in the series on MDA-MB-231 cells [8] (MDA-MB-231, alamarBlue, MMAE concentration), “Ambiguous”.
As for “(MeTzPh)PEG4CO-NHPEG24CO—[N(PN)2][Lys]2[^3H-Lys]4[Lys]8[(α-NHGlu-VC-PAB-MMAE)8(ε-NH-COPEG1100)8], G3 [Compound 72]”, in the series with MDA-MB-231/HER2 tumours, the “accumulation in HER2 positive tumours” value came to 1.88 % dose/g and the blood concentration stood at 3.69 % dose/g.

B1: Nanobody*-N3/DBCO-NHCO-PEG12TCO/(MeTzPh)PEG4CO-NHPEG24CO-[N(PN)2][Lys]2[Lys]4[Lys]8[((α-NHCy5)1(α-NHGlu-VC-PAB-MMAE)7)(ε-NH-COPEG1100)8], Compound 123 (VHH)
VHH: EVQLVESGGSLVQPGGSLRLSCAASGFTFDDYAMSWVRQVPGKGLEWVSSINWSGTHTDYADSVKGRFTISRNNANNTLYLQMNSLKSEDTAVYYCAKNWRDAGTTWFEKSGSAGQGTQVTVSS
modifications: C-terminal # (unnatural amino acid, p-azido-phenylalanine) clicked to DBCO-NHCO-PEG12-TCO, joined to the tetrazine at the core of the G3 lysine dendrimer (1 Cy5, 7 Glu-VC-PAB-MMAE, 8 PEG1100)
notes: T0004 r280 names the protein Nanobody*; No synthesis paragraph for this compound; also called 2D3 nanobody targeted dendrimer
As to B1, the “fold fluorescence over Compound 71 (untargeted control)” value in series [9] is around 9 fold; in series [10], around 16 fold.
